Assay results from patent publication US10426775B2, “Methods for treating Friedreich's ataxia with etravirine” (Fratagene Therapeutics srl, priority 2017, dated 2019).

Legend:
Assay type in all cases: cell-based, human
frataxin precursor = experiment: Western blot of frataxin in HEK293 Flp-In cells stably transfected with frataxin (HEK293-fxn)
Protocol: For the validation steps, etravirine (TMC125) was purchased from Selleckchem and was dissolved in DMSO at a stock concentration of 10 mM. HEK-293 Flp-In cells, stably overexpressing frataxin, were treated with the drug (or only DMSO) for 24 hours at final concentration of 10 μM. FRDA cells were treated with different concentration of etravirine. For all drug (and no drug) treatments, the final concentration of DMSO in the cell culture medium was 0.1%.
Total cell extracts were prepared in lysis buffer (50 mM Tris-HCl, pH 7.5, 150 mM NaCl, 1% Igepal CA-630, 5 mM EDTA, 5 mM EGTA) supplemented with complete protease inhibitor cocktail (Roche Diagnostics, Indianapolis, Ind., USA). […] The immunoreactive bands were detected by ECL (GE Healthcare, Chalfont St. Giles, UK) and imaged with a ChemiDoc XRS system (Bio-Rad). […] All values are expressed as means±1 S.E.M.
The identified candidate drugs were individually validated for their ability to promote frataxin accumulation in different cell types. […] Protein extracts from the cell lines were resolved on SDS-PAGE and analyzed by western blot with anti-frataxin antibody and anti-tubulin as a loading control. […]
HEK 293-fxn stably expressing frataxin (A), HEK 293 (B), or FRDA lymphoblast cell line GM16203 (C) were treated with 10 μM etravirine for the indicated time points. Protein extracts were resolved on SDS-PAGE and analyzed by western blot with anti-frataxin antibody and anti-tubulin as a loading control. […] Quantitative analysis of newly-synthesized FXN mRNA was performed by metabolic labeling of nascent RNA using the Click-iT Nascent RNA Capture Kit (Life Technologies), followed by biotin conjugation and isolation with streptavidin beads, according to provider instructions. Nascent frataxin transcripts levels were quantitated by real-time PCR relative to the expression of the control genes ACTB, GUSB and ATP5J. […] Relative levels of total frataxin mRNA were measured by real-time PCR and normalized on expression levels of three control genes ATP5J, GUSB and ACTB using the ΔΔCt method. […]

aconitase = experiment: Aconitase activity in FRDA lymphoblast extracts (spectrophotometric, 340 nm); details: GM16214 lymphoblasts, 500 nM etravirine, after 48 hours, compared with GM16215
Protocol: Whole-cell extracts from GM16215 lymphoblasts, GM16214 lymphoblasts and GM16214 lymphoblasts treated with etravirine were prepared in ice-cold CelLytic M buffer (Sigma-Aldrich) supplemented with 2 mM sodium citrate and Complete EDTA-free protease inhibitor cocktail (Roche Diagnostic). Spectrophotometric aconitase assays were performed at 25° C. with 100 μg of cell extracts using the BIOXYTECH Aconitase-340™ Assay (OxisResearch™ 21041). Spectrophotometric citrate synthase activities were assessed at 25° C. with 10-20 μg of cell extracts using the Citrate Synthase Assay Kit (Sigma-Aldrich CS0720). […] For the calculation of the activities, one unit of enzyme was expressed as the amount of protein that converted 1 μmol of substrate per minute at 25° C. Quantitative data are presented as mean±SEM of at least three independent experiments.
To further explore the therapeutic potential of etravirine, we considered its ability to correct some of the defects associated with frataxin loss in cells derived from patients. […] To evaluate whether the increase in frataxin levels promoted by etravirine treatment is sufficient to restore ISC biogenesis in FRDA patient-derived cells, we measured the activity of aconitase upon etravirine treatment and compared it to the activity observed in cells derived from the healthy carrier parent. […]

frataxin-deficient cells = experiment: Toxic effect and cell viability of etravirine-treated frataxin-deficient cells; details: any of the tested doses

Cc1cc(C#N)cc(C)c1Oc1nc(Nc2ccc(C#N)cc2)nc(N)c1Br [etravirine]
increase in frataxin precursor levels (densitometric ratio frataxin precursor/tubulin) (frataxin precursor; HEK293-fxn, 10 μM of each candidate drug, 24 h): striking upregulation
amount of frataxin precursor (frataxin precursor; HEK293-fxn, etravirine at 10 (μM), detectable after 4 hours, higher after 12 hours): rapid and robust increase
frataxin accumulation compared with MG132 treatment (frataxin precursor; etravirine vs general proteasome inhibitor MG132, cell system not stated): strikingly stronger
aconitase activity in FRDA cells (aconitase): restore aconitase activity
toxic effect on frataxin-deficient cells (frataxin-deficient cells): does not show any toxic effect
cell viability (frataxin-deficient cells; frataxin-deficient cells): does not affect cell viability
